Data as given in ChEMBL document CHEMBL1157053, “Pharmacophore-based 3D QSAR studies on a series of high affinity 5-HT1A receptor ligands” (Eur J Med Chem, 2010).

Each compound was assayed against T1, 5-hydroxytryptamine receptor 1A (Homo sapiens, UniProt P08908) (assay: Antagonist activity at 5HT1A).
T1 sequence (P08908 whole entry): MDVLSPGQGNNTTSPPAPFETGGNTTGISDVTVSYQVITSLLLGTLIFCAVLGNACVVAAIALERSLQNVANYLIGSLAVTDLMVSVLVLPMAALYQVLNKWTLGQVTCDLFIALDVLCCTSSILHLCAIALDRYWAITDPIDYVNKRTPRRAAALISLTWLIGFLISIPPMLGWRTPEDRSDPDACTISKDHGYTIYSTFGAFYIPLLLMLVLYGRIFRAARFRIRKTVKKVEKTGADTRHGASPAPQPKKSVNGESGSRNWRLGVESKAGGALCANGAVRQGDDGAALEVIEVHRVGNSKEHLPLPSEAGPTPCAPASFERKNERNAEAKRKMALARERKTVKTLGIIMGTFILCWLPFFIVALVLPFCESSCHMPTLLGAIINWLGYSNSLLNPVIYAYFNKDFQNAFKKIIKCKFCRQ
Format: functional

Question: `COc1ccccc1N1CCN(CCC(O)c2ccc(-c3ccccc3)cc2)CC1` (centres undefined) was tested. Which Ki did it give?
Answer: 851 nM

Question: For `OC(CCN1CCN(c2cccc3ncccc23)CC1)c1csc2ccccc12` (centres undefined), which Ki is on record?
Answer: 37.2 nM

Question: How did the Ki turn out when `OC(CCN1CCN(c2cccc3cccnc23)CC1)c1csc2ccccc12` (centres undefined) was run?
Answer: 550 nM

Question: How did the Ki turn out when `OC(CCN1CCN(c2cccc3ccccc23)CC1)c1csc2ccccc12` (centres undefined) was run?
Answer: 66.1 nM

Question: Which Ki does the source give for `Oc1ccccc1N1CCN(CCC(O)c2ccc3ccccc3c2)CC1` (centres undefined) here?
Answer: 191 nM

Question: How did the Ki turn out when `COc1ccccc1N1CCN(CCC(Oc2cccc3ccccc23)c2ccsc2)CC1` (centres undefined) was run?
Answer: 182 nM

Question: How did the Ki turn out when `COc1ccccc1N1CCN(CC/C(=N\O)c2csc3ccccc23)CC1` was run?
Answer: 794 nM

Question: For `COc1ccccc1N1CCN(CCC(Oc2cccc3ccccc23)c2cccs2)CC1` (centres undefined), which Ki is on record?
Answer: 219 nM

Question: Which Ki does the source give for `COc1cc(F)ccc1N1CCN(CCC(=O)c2cc(C)sc2C)CC1` here?
Answer: 12.9 nM

Question: For `Cc1cc(C(=O)CCN2CCN(c3cccc4ccccc34)CC2)c(C)s1`, which Ki is on record?
Answer: 5010 nM

Question: With `CC1CN(CCC(O)c2csc3ccc(F)cc23)CCN1c1cccc2c1OCO2` (centres undefined) as the compound, how does the Ki read?
Answer: 9.33 nM

Question: `COc1ccccc1N1CCN(CCC(=O)c2ccc([N+](=O)[O-])cc2)CC1` was tested. Which Ki did it give?
Answer: 50.1 nM

Question: How did the Ki turn out when `OC(CCN1CCN(c2cccc3c2OCCO3)CC1)c1csc2ccc(F)cc12` (centres undefined) was run?
Answer: 6.03 nM

Question: Which Ki does the source give for `OC(CCN1CCN(c2cccc3cccnc23)CC1)c1csc2ccc(F)cc12` (centres undefined) here?
Answer: 2.69 nM

Question: For `FC(F)(F)c1ccc(OC(CCN2CCN(c3ccc(Cl)cc3)CC2)c2ccccc2)cc1` (centres undefined), which Ki is on record?
Answer: 5010 nM

Question: `OC(CCN1CCN(c2ccc3ncccc3c2)CC1)c1csc2ccccc12` (centres undefined) was tested. Which Ki did it give?
Answer: 550 nM

Question: For `OC(CCN1CCN(c2ccc(F)cc2)CC1)c1ccccc1` (centres undefined), which Ki is on record?
Answer: 145 nM

Question: Which Ki does the source give for `OC(CCN1CCN(c2cnc3ccccc3c2)CC1)c1csc2ccccc12` (centres undefined) here?
Answer: 1000 nM

Question: How did the Ki turn out when `COc1ccccc1N1CCN(CCC(=O)c2ccsc2)CC1` was run?
Answer: 60.3 nM

Question: With `COc1ccc(OC(CCN2CCN(c3ccccc3OC)CC2)c2ccccc2)cc1` (centres undefined) as the compound, how does the Ki read?
Answer: 89.1 nM

Question: `Cc1ccc2cccc(N3CCN(CCC(O)c4csc5ccccc45)CC3)c2n1` (centres undefined) was tested. Which Ki did it give?
Answer: 10.2 nM

Question: With `OC(CCN1CCN(c2cccc3c2OCCCO3)CC1)c1csc2ccc(F)cc12` (centres undefined) as the compound, how does the Ki read?
Answer: 3.02 nM

Question: For `O=C(CCN1CCN(c2ccccc2O)CC1)c1ccc2ccccc2c1`, which Ki is on record?
Answer: 1000 nM

Question: `COc1ccccc1N1CCN(CCC(O)c2ccc([N+](=O)[O-])cc2)CC1` (centres undefined) was tested. Which Ki did it give?
Answer: 10 nM

Question: Which Ki does the source give for `COc1ccccc1N1CCN(CCC(Oc2ccc3c(c2)OCO3)c2ccsc2)CC1` (centres undefined) here?
Answer: 55 nM

Question: How did the Ki turn out when `OC(CCN1CCN(c2ccc3sccc3c2)CC1)c1csc2ccccc12` (centres undefined) was run?
Answer: 1580 nM

Question: Which Ki does the source give for `COc1ccccc1N1CCN(CCC(Oc2ccc3c(c2)OCO3)c2ccccc2)CC1` (centres undefined) here?
Answer: 20 nM

Question: Which Ki does the source give for `COc1ccccc1N1CCN(CCC(O)c2csc(C)c2)CC1` (centres undefined) here?
Answer: 372 nM

Question: `Cc1ccc2cccc(N3CCN(CCC(O)c4csc5ccc(F)cc45)CC3)c2n1` (centres undefined) was tested. Which Ki did it give?
Answer: 2.51 nM

Question: Which Ki does the source give for `OC(CCN1CCN(c2ncccn2)CC1)c1ccccc1` (centres undefined) here?
Answer: 372 nM

Question: For `Cc1cc(C(O)CCN2CCN(c3ccccc3O)CC2)c(C)s1` (centres undefined), which Ki is on record?
Answer: 89.1 nM

Question: Which Ki does the source give for `OC(CCN1CCN(c2ccccc2Cl)CC1)c1ccsc1` (centres undefined) here?
Answer: 5010 nM

Question: `OC(CCN1CCN(c2cccc3c2OCCCO3)CC1)c1csc2ccccc12` (centres undefined) was tested. Which Ki did it give?
Answer: 1.91 nM

Question: `COc1ccccc1N1CCN(CCC(=O)c2cc(C)sc2C)CC1` was tested. Which Ki did it give?
Answer: 5010 nM
